In brackets after ≈: the same amount, converted by molar mass.
Legend:
LNCaP = assay: Cytotoxicity against human LNCAP cells assessed as cell viability after 72 hrs by MTT assay; assay type: functional, cell-based
HepG2 = assay: Cytotoxicity against human HepG2 cells assessed as cell viability after 72 hrs by MTT assay; assay type: functional, cell-based; settings: HepG2, 72 h
MCF7 = assay: Cytotoxicity against human MCF7 cells assessed as cell viability after 72 hrs by MTT assay; assay type: functional, cell-based; settings: MCF7, 72 h
[1] = molecular target: Kinesin-like protein KIF11 (Homo sapiens, UniProt P52732); assay: Inhibition of EG5 (unknown origin)
Sequence of Kinesin-like protein KIF11 (P52732 whole entry): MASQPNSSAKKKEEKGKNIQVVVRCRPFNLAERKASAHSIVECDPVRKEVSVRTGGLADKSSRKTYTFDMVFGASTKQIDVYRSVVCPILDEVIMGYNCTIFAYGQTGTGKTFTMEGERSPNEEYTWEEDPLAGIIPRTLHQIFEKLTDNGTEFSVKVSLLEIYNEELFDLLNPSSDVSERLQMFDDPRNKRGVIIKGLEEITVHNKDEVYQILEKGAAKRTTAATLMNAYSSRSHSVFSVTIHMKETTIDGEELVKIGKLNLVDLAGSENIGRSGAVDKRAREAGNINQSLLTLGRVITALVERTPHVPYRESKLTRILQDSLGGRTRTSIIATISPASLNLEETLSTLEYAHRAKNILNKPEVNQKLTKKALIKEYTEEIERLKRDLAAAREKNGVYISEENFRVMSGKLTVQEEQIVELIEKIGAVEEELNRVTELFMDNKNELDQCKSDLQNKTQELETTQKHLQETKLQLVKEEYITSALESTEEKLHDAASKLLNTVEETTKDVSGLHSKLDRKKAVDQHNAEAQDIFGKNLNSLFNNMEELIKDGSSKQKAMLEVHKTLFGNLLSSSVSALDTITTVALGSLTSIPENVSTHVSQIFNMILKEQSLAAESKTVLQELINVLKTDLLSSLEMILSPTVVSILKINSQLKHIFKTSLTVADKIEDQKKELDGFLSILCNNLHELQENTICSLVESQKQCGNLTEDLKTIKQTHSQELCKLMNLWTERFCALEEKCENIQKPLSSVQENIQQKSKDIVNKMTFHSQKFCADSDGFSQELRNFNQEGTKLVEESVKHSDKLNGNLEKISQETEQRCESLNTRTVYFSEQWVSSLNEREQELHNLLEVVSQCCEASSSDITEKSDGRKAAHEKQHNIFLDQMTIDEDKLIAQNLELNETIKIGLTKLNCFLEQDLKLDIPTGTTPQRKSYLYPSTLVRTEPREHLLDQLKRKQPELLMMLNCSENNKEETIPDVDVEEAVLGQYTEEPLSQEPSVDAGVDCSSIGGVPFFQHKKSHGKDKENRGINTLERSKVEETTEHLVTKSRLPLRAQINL

For `c1ccc2c3c([nH]c2c1)[C@H](c1ccc([C@@H]2NCCc4c2[nH]c2ccccc42)cc1)NCC3`, the IC50 (LNCaP) was 13.3 µg/mL (≈ 31.8 µM), the IC50 (HepG2) was 6.22 µg/mL (≈ 14.9 µM) and the IC50 (MCF7) was 5.19 µg/mL (≈ 12.4 µM).

Work on `COc1cccc2c1C(=O)c1c(O)c3c(c(O)c1C2=O)C[C@@](O)(C(=O)CO)C[C@@H]3O[C@H]1C[C@H](N)[C@H](O)[C@H](C)O1` [DOXORUBICIN] yielded an IC50 (LNCaP) of 5.28 µg/mL (≈ 9.71 µM) and an IC50 (HepG2) of 4.23 µg/mL (≈ 7.78 µM).

Work on `c1ccc2c3c([nH]c2c1)[C@@H](c1ccc([C@H]2NCCc4c2[nH]c2ccccc42)cc1)NCC3` yielded an IC50 (LNCaP) of 15.2 µg/mL (≈ 36.4 µM), an IC50 (HepG2) of 5.22 µg/mL (≈ 12.5 µM) and an IC50 (MCF7) of 8.7 µg/mL (≈ 20.8 µM).

Compound `CCCCN1C(=O)[C@H]2Cc3c([nH]c4ccccc34)[C@@H](c3cccc(O)c3)N2C1=O` has an IC50 [1] of 0.8 µM.

— ChEMBL document CHEMBL4004838, “Design and synthesis of novel phenyl -1, 4-beta-carboline-hybrid molecules as potential anticancer agents” (Eur J Med Chem, 2017)
